pIC50: −log10 of the molar value.

The target of this assay is T1, Human SGLT2 (hSGLT2) (Homo sapiens, UniProt P31639).
T1 construct: expressed in transfected cells
T1 sequence (P31639 1-672): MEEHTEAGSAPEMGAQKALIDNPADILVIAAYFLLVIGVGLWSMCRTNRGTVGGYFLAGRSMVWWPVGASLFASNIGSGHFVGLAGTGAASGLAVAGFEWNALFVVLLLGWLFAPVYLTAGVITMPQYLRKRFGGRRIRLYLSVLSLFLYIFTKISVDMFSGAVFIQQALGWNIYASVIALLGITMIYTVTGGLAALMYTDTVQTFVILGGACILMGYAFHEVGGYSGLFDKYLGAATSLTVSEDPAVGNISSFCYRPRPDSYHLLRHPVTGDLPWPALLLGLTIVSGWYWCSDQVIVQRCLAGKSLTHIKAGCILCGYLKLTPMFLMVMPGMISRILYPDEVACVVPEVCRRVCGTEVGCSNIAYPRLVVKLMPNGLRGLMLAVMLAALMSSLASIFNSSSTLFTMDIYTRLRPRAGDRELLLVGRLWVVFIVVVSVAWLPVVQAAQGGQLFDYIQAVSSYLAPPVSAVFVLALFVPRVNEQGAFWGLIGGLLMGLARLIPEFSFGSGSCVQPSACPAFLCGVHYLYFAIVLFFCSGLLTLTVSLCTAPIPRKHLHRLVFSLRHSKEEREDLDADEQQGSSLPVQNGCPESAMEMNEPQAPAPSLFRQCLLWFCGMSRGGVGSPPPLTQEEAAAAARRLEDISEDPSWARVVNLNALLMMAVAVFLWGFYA
As to the kind of experiment: Sodium-dependent glucose transport (14C-AMG uptake) assay in CHO cells stably expressing hSGLT2. It counts as cell-based. Conditions: CHO cells expressing hSGLT2, 14C-AMG uptake, 37° C. for 2 h; single determinations; read-out: hSGLT2 Inhibitory Activity IC50. The text has this: Cloning and Cell Line Construction for Human SGLT2
Human SGLT2 (hSGLT2) gene was amplified by PCR from cDNA-Human Adult Normal Tissue Kidney (Invitrogen). The hSGLT2 sequence was cloned into pcDNA3.1(+) for mammalian expression and were stably transfected into chinese hamster ovary (CHO) cells. SGLT2-expressing clones were selected based on resistance to G418 antibiotic (Geneticin) and activity in the ^14C-α-methyl-D-glucopyranoside (^14C-AMG) uptake assay.
Inhibitory Effects on Human SGLT2 Activities
For sodium-dependent glucose transport assay, cells expressing hSGLT2 were seeded into a 96-well culture plate at a density of 5×10^4 cells/well in RPMI medium 1640 containing 10% fetal bovine serum. The cells were used 1 day after plating. They were incubated in pretreatment buffer (10 mM HEPES, 5 mM Tris, 140 mM choline chloride, 2 mM KCl, 1 mM CaCl2, and 1 mM MgCl2, pH 7.4) at 37° C. for 10 min. They were then incubated in uptake buffer (10 mM HEPES, 5 mM Tris, 140 mM NaCl, 2 mM KCl, 1 mM CaCl2, 1 mM MgCl2, and 1 mM ^14C-nonlabeled AMG, pH 7.4) containing ^14C-labeled (8 μM) and inhibitor or dimethylsulfoxide (DMSO) vehicle at 37° C. for 2 h. Cells were washed twice with washing buffer (pretreatment buffer containing 10 mM AMG at room temperature) and then the radioactivity was measured using a liquid scintillation counter. IC50 was determined by nonlinear regression analysis using GraphPad PRISM [Katsuno, K. et al. J. Pharmacol. Exp. Ther. 2007, 320, 323-330; Han, S. et al. Deabetes, 2008, 57, 1723-1729].
Regarding `CCCc1cnc(Cc2cc([C@@H]3O[C@H](CO)[C@@H](O)[C@H](O)[C@H]3O)c3ccccc3c2O)s1` [Example 126, (2S,3R,4R,5S,6R)-2-(4-Hydroxy-3-((5-propylthiazol-2-yl)methyl)naphthalen-1-yl)-6-(hydroxymethyl)-tetrahydro-2H-pyran-3,4,5-triol], the pIC50 – broadly, the IC50 on a negative log10 scale, so that one unit is a factor of ten – was 7.17. `COc1cc(Cl)c(Cc2ncc(-c3ccoc3)s2)cc1[C@@H]1O[C@H](CO)[C@@H](O)[C@H](O)[C@H]1O` [Example 70, (2S,3R,4R,5S,6R)-2-(4-Chloro-5-((5-(furan-3-yl)thiazol-2-yl)methyl)-2-methoxyphenyl)-6-(hydroxymethyl)tetrahydro-2H-pyran-3,4,5-triol]: the pIC50 is 8.13.

For `CCc1cnc(Cc2cc([C@@H]3O[C@H](CO)[C@@H](O)[C@H](O)[C@H]3O)ccc2Cl)s1` [Example 12, (2S,3R,4R,5S,6R)-2-(4-chloro-3-((5-ethylthiazol-2-yl)methyl)phenyl)-6-(hydroxymethyl)-tetrahydro-2H-pyran-3,4,5-triol], the pIC50 is 7.78. Take `OC[C@H]1O[C@@H](c2ccc(Cl)c(Cc3cnc(-c4cocn4)s3)c2)[C@H](O)[C@@H](O)[C@@H]1O` [Example 191, (2S,3R,4R,5S,6R)-2-(4-Chloro-3-((2-(oxazol-4-yl)thiazol-5-yl)methyl)phenyl)-6-(hydroxymethyl)tetrahydro-2H-pyran-3,4,5-triol]: the pIC50 was 7.34. For `OC[C@H]1O[C@@H](c2ccc(Cl)c(Cc3ncc(-c4ccoc4)s3)c2)[C@H](O)[C@@H](O)[C@@H]1O` [Example 6, (2S,3R,4R,5S,6R)-2-(4-Chloro-3-((5-(furan-3-yl)thiazol-2-yl)methyl)phenyl)-6-(hydroxymethyl)-tetrahydro-2H-pyran-3,4,5-triol], the pIC50 is 8.20.

Turning to `OC[C@H]1O[C@@H](c2ccc(Cl)c(Cc3cnc(-c4cc5ccccc5o4)s3)c2)[C@H](O)[C@@H](O)[C@@H]1O` [Example 185, (2S,3R,4R,5S,6R)-2-(3-((2-(Benzofuran-2-yl)thiazol-5-yl)methyl)-4-chlorophenyl)-6-(hydroxymethyl)tetrahydro-2H-pyran-3,4,5-triol], the pIC50 was 7.12. The value for `C=CCOc1cc(Cl)c(Cc2ncc(-c3ccoc3)s2)cc1[C@@H]1O[C@H](CO)[C@@H](O)[C@H](O)[C@H]1O` [Example 84, (2S,3R,4R,5S,6R)-2-(2-(Allyloxy)-4-chloro-5-((5-(furan-3-yl)thiazol-2-yl)methyl)phenyl)-6-(hydroxymethyl)tetrahydro-2H-pyran-3,4,5-triol] was 8.81; that for `OC[C@H]1O[C@@H](c2cc(Cc3ncc(-c4ccsc4)s3)c(Cl)cc2F)[C@H](O)[C@@H](O)[C@@H]1O` [Example 56, (2S,3R,4R,5S,6R)-2-(4-Chloro-2-fluoro-5-((5-(thiophen-3-yl)thiazol-2-yl)methyl)phenyl)-6-(hydroxymethyl)tetrahydro-2H-pyran-3,4,5-triol] was 8.67. As for `OC[C@H]1O[C@@H](c2ccc(Cl)c(Cc3ncc(-c4ccc(F)cc4)s3)c2)[C@H](O)[C@@H](O)[C@@H]1O` [Example 11, (2S,3R,4R,5S,6R)-2-(4-Chloro-3-((5-(4-fluorophenyl)thiazol-2-yl)methyl)phenyl)-6-(hydroxymethyl)-tetrahydro-2H-pyran-3,4,5-triol], the pIC50 is 7.67.

Regarding `C=CCOc1cc(Cl)c(Cc2ncc(-c3ccco3)s2)cc1[C@@H]1O[C@H](CO)[C@@H](O)[C@H](O)[C@H]1O` [Example 83, (2S,3R,4R,5S,6R)-2-(2-(Allyloxy)-4-chloro-5-((5-(furan-2-yl)thiazol-2-yl)methyl)phenyl)-6-(hydroxymethyl)tetrahydro-2H-pyran-3,4,5-triol], the pIC50 was 8.91. Regarding `CCc1cnc(Cc2cc([C@@H]3O[C@H](CO)[C@@H](O)[C@H](O)[C@H]3O)cc3ccccc23)s1` [Example 105, (2S,3R,4R,5S,6R)-2-(4-((5-Ethylthiazol-2-yl)methyl)naphthalen-2-yl)-6-(hydroxymethyl)-tetrahydro-2H-pyran-3,4,5-triol], the pIC50 is 6.61. On to `CCc1cnc(Cc2cc([C@@H]3O[C@H](CO)[C@@H](O)[C@H](O)[C@H]3O)c(Cl)cc2Cl)s1` [Example 64, (2S,3R,4R,5S,6R)-2-(2,4-Dichloro-5-((5-ethylthiazol-2-yl)methyl)phenyl)-6-(hydroxymethyl)tetrahydro-2H-pyran-3,4,5-triol], for which the pIC50 was 7.58. With `COC[C@H]1O[C@@H](c2ccc(Cl)c(Cc3ncc(-c4ccco4)s3)c2)[C@H](O)[C@@H](O)[C@@H]1O` [Example 139, (2S,3R,4R,5S,6R)-2-(4-Chloro-3-((5-(furan-2-yl)thiazol-2-yl)methyl)phenyl)-6-(methoxymethyl)-tetrahydro-2H-pyran-3,4,5-triol], the pIC50 is 7.63. Regarding `OC[C@H]1O[C@@H](c2ccc(Cl)c(C3(c4ncc(-c5cccs5)s4)CC3)c2)[C@H](O)[C@@H](O)[C@@H]1O` [Example 29, (2S,3R,4R,5S,6R)-2-(4-Chloro-3-(1-(5-(thiophen-2-yl)thiazol-2-yl)cyclopropyl)phenyl)-6-(hydroxymethyl)tetrahydro-2H-pyran-3,4,5-triol], the pIC50 is 7.41. For the molecule `C=CCc1cnc(Cc2cc([C@@H]3O[C@H](CO)[C@@H](O)[C@H](O)[C@H]3O)ccc2Cl)s1` [Example 17, (2S,3R,4R,5S,6R)-2-(3-((5-Allylthiazol-2-yl)methyl)-4-chlorophenyl)-6-(hydroxymethyl)-tetrahydro-2H-pyran-3,4,5-triol], the pIC50 is 7.94. For `Cc1ccc([C@@H]2O[C@H](CO)[C@@H](O)[C@H](O)[C@H]2O)cc1Cc1ncc(-c2ccc(Cl)cc2)s1` [Example 38, (2S,3R,4R,5S,6R)-2-(3-((5-(4-Chlorophenyl)thiazol-2-yl)methyl)-4-methylphenyl)-6-(hydroxymethyl)tetrahydro-2H-pyran-3,4,5-triol], the pIC50 was 7.59. As to `CCc1cnc(Cc2cn([C@@H]3O[C@H](CO)[C@@H](O)[C@H](O)[C@H]3O)c3ccccc23)s1` [Example 133, (2R,3R,4S,5S,6R)-2-(3-((5-Ethylthiazol-2-yl)methyl)-1H-indol-1-yl)-6-(hydroxymethyl)tetrahydro-2H-pyran-3,4,5-triol], the pIC50 was 6.74.

Regarding `OC[C@H]1O[C@@H](c2ccc(Cl)c(Cc3cnc(-c4ccco4)s3)c2)[C@H](O)[C@@H](O)[C@@H]1O` [Example 184, (2S,3R,4R,5S,6R)-2-(4-Chloro-3-((2-(furan-2-yl)thiazol-5-yl)methyl)phenyl)-6-(hydroxymethyl)tetrahydro-2H-pyran-3,4,5-triol], the pIC50 is 8.85. Next, `OC[C@H]1O[C@@H](c2cc(Cc3ncc(-c4ccco4)s3)cc3ccccc23)[C@H](O)[C@@H](O)[C@@H]1O` [Example 93, (2S,3R,4R,5S,6R)-2-(3-((5-(Furan-2-yl)thiazol-2-yl)methyl)naphthalen-1-yl)-6-(hydroxymethyl)tetrahydro-2H-pyran-3,4,5-triol]: 7.84; `CCOc1cc(Cl)c(Cc2ncc(-c3ccco3)s2)cc1[C@@H]1O[C@H](CO)[C@@H](O)[C@H](O)[C@H]1O` [Example 77, (2S,3R,4R,5S,6R)-2-(4-Chloro-2-ethoxy-5-((5-(furan-2-yl)thiazol-2-yl)methyl)phenyl)-6-(hydroxymethyl)tetrahydro-2H-pyran-3,4,5-triol]: 8.40.
